# Experimental data reported in US9101638B2, “Boronic acid derivatives and therapeutic uses thereof” (Rempex Pharmaceuticals, Inc., priority 2013, dated 2015).
# Like-named read-outs stand apart in the source and are kept apart here.
# Tests used:
# [1] = test system: KP1005 (CTX-M-14); experiment: Potentiation of aztreonam, strain KP1005; assay type: cell-based
# [2] = test system: KP1009 (CTX-M-15); experiment: Potentiation of aztreonam, strain KP1009; assay type: cell-based
# [3] = test system: ec308 (SHV-5); experiment: Potentiation of aztreonam, strain ec308; assay type: cell-based; conditions: for AZT MPC4 SHV-5 ec308: minimum BLI concentration inhibiting growth with 4 μg/mL aztreonam
# [4] = test system: ec302 (TEM-10); experiment: Potentiation of aztreonam, strain ec302; assay type: cell-based
# [5] = test system: KP1004 (K-2); experiment: Potentiation of aztreonam, strain KP1004; assay type: cell-based; conditions: for AZT MPC4 K-2 KP1004: minimum BLI concentration inhibiting growth with 4 μg/mL aztreonam
# [6] = test system: ECL1002; experiment: Potentiation of aztreonam, strain ECL1002; assay type: cell-based; conditions: minimum BLI concentration inhibiting growth with 4 μg/mL aztreonam
# [7] = test system: EC1010 (CMY-6); experiment: Potentiation of aztreonam, strain EC1010; assay type: cell-based
# [8] = test system: ec308 (SHV-5); experiment: Potentiation of tigemonam, strain ec308; assay type: cell-based; conditions: minimum BLI concentration inhibiting growth with 4 μg/mL tigemonam
# [9] = test system: ec302 (TEM-10); experiment: Potentiation of tigemonam, strain ec302; assay type: cell-based
# [10] = test system: EC1010 (CMY-6); assay type: cell-based
# [11] = molecular target: KPC-2 (Klebsiella pneumoniae, UniProt Q9F663); experiment: Inhibition of nitrocefin cleavage by purified KPC-2; assay type: biochemical; conditions: nitrocefin reporter substrate, purified enzyme; read-out: Ki (KPC-2, NCF)
# Chain of KPC-2 (Q9F663 25-293, looked up, species assumed): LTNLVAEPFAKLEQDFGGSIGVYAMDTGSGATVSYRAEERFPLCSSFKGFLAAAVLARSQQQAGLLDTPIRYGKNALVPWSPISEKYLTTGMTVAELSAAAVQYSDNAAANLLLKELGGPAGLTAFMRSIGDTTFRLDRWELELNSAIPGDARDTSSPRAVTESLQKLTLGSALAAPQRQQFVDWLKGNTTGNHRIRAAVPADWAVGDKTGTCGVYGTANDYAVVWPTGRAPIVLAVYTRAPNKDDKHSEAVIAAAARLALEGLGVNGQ
# Procedure: (§1) Purified enzymes were mixed with various concentrations of inhibitors in reaction buffer and incubated for 10 min at room temperature. Nitrocefin was added and substrate cleavage profiles were recorded at 490 nm every 10 sec for 10 min.
# [12] = test system: KP1009 (CTX-M-15); experiment: Potentiation of tigemonam, strain KP1009; conditions: minimum BLI concentration inhibiting growth with 4 μg/mL tigemonam
# [13] = molecular target: SHV-12 (Klebsiella pneumoniae, UniProt P0AD64, E235K/G234S/L31Q); experiment: Inhibition of nitrocefin cleavage by purified SHV-12; assay type: biochemical; conditions: nitrocefin reporter substrate, purified enzyme; read-out: Ki (SHV-12, NCF)
# Chain of SHV-12 (P0AD64 22-286 L31Q/G234S/E235K): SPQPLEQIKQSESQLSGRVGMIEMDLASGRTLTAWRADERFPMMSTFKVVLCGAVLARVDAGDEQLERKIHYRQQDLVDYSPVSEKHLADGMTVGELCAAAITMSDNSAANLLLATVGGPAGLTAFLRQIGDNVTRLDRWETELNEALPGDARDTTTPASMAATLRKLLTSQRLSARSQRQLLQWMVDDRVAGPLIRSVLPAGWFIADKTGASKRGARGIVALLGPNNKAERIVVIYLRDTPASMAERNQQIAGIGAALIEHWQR
# Procedure: as §1
# [14] = test system: PAM1032/KPC-2; experiment: Biapenem potentiation in PAM1032/KPC-2 (MexAB-OprM overexpressed); assay type: cell-based, Pseudomonas aeruginosa; conditions: BLI potency to decrease biapenem MIC 64-fold, 32 to 0.5 μg/ml; efflux proficient strain
# Procedure: (§2) Efflux of BLIs from Pseudomonas aeruginosa by the MexAB-OprM efflux pump was also evaluated. […] Due to expression of KPC-2 both strains became resistant to biapenem. […] Potency of BLIs to potentiate biapenem in these strains was determined. […] The ratio of MPC64 values for each BLI in PAM1032/KPC-2 (efflux proficient) and PAM1154/KPC-2 (efflux deficient) was determined to generate the Efflux Index (EI).
# [15] = test system: PAM1154/KPC-2; experiment: Biapenem potentiation in PAM1154/KPC-2 (MexAB-OprM lacking); assay type: cell-based, Pseudomonas aeruginosa; conditions: for PAM11154/KPC-2 Biapenem MPC64: BLI potency to decrease biapenem MIC 64-fold, 32 to 0.5 μg/ml, efflux deficient strain
# Procedure: as §2
# [16] = minimum BLI concentration inhibiting growth with 4 μg/mL tigemonam
# [17] = minimum BLI concentration inhibiting growth with 4 μg/mL aztreonam
SMILES,AZT MPC4 CTX-M-14 KP1005 [1],AZT MPC4 CTX-M-15 KP1009 [2],AZT MPC4 SHV-5 ec308 [3],AZT MPC4 TEM-10 ec302 [4],AZT MPC4 K-2 KP1004 [5],AZT MPC4 ECL1002 [6],AZT MPC4 CMY-6 EC1010 [7],TIG MPC4 SHV-5 ec308 [8],TIG MPC4 TEM-10 ec302 [9],TIG MPC4 CMY-6 EC1010 [10],Ki [11] [nM],TIG MPC4 CTX-M-15 KP1009 [12],Ki [13] [nM],PAM1032/KPC-2 Biapenem MPC64 [14],further results
"CN(C)C(=O)C(=O)N[C@H]1Cc2cccc(C(=O)O)c2OB1O [Compound 9, (R)-3-(2-(dimethylamino)-2-oxoacetamido)-2-hydroxy-3,4-dihydro-2H-benzo[e][1,2]oxaborinine-8-carboxylic acid]",Y (key: X = MIC of less than 1 μg/mL; Y = MIC of 1 μg/mL to 10 μg/mL; Z = MIC of greater than 10 μg/mL),Y (key: X = MIC of less than 1 μg/mL; Y = MIC of 1 μg/mL to 10 μg/mL; Z = MIC of greater than 10 μg/mL),X (X = MIC of less than 1 μg/mL),Y (key: X = MIC of less than 1 μg/mL; Y = MIC of 1 μg/mL to 10 μg/mL; Z = MIC of greater than 10 μg/mL),Y (Y = MIC of 1 μg/mL to 10 μg/mL),Y (Y = MIC of 1 μg/mL to 10 μg/mL),Y (key: X = MIC of less than 1 μg/mL; Y = MIC of 1 μg/mL to 10 μg/mL; Z = MIC of greater than 10 μg/mL),Y (Y = MIC of 1 μg/mL to 10 μg/mL),Z (key: X = MIC of less than 1 μg/mL; Y = MIC of 1 μg/mL to 10 μg/mL; Z = MIC of greater than 10 μg/mL),Y (key: X = MIC of less than 1 μg/mL; Y = MIC of 1 μg/mL to 10 μg/mL; Z = MIC of greater than 10 μg/mL),> 10,Y (Y = MIC of 1 μg/mL to 10 μg/mL),–,–,–
"C[C@H]1[C@H](NC(=O)/C(=N\OC(C)(C)C(=O)O)c2csc(N)n2)C(=O)N1S(=O)(=O)O [Aztreonam, reference compound]",–,–,–,–,–,–,–,–,–,–,–,–,–,–,MIC ([1]; read-out: Aztreonam MIC): > 128 µg/mL; MIC ([2]; read-out: Aztreonam MIC): > 128 µg/mL; MIC ([3]; read-out: Aztreonam MIC): > 128 µg/mL; MIC ([4]; read-out: Aztreonam MIC): 128 µg/mL; MIC ([5]; read-out: Aztreonam MIC): > 128 µg/mL; MIC ([7]; read-out: Aztreonam MIC): > 128 µg/mL
"Cn1nnnc1SCC(=O)N[C@H]1Cc2cccc(C(=O)O)c2OB1O [Compound 2, (R)-2-hydroxy-3-(2-(1-methyl-1H-tetrazol-5-ylthio)acetamido)-3,4-dihydro-2H-benzo[e][1,2]oxaborinine-8-carboxylic acid]",X (key: X = MIC of less than 1 μg/mL; Y = MIC of 1 μg/mL to 10 μg/mL; Z = MIC of greater than 10 μg/mL),Y (key: X = MIC of less than 1 μg/mL; Y = MIC of 1 μg/mL to 10 μg/mL; Z = MIC of greater than 10 μg/mL),X (X = MIC of less than 1 μg/mL),Y (key: X = MIC of less than 1 μg/mL; Y = MIC of 1 μg/mL to 10 μg/mL; Z = MIC of greater than 10 μg/mL),Y (Y = MIC of 1 μg/mL to 10 μg/mL),Y (Y = MIC of 1 μg/mL to 10 μg/mL),Y (key: X = MIC of less than 1 μg/mL; Y = MIC of 1 μg/mL to 10 μg/mL; Z = MIC of greater than 10 μg/mL),X (X = MIC of less than 1 μg/mL),Y (key: X = MIC of less than 1 μg/mL; Y = MIC of 1 μg/mL to 10 μg/mL; Z = MIC of greater than 10 μg/mL),X (key: X = MIC of less than 1 μg/mL; Y = MIC of 1 μg/mL to 10 μg/mL; Z = MIC of greater than 10 μg/mL),–,Y (Y = MIC of 1 μg/mL to 10 μg/mL),< 1,Z (Z Greater than 40),PAM11154/KPC-2 Biapenem MPC64 [15]: Y (Y = 10 to 40)
"CN(C)C(=O)CC(=O)N[C@H]1Cc2cccc(C(=O)O)c2OB1O [Compound 10, (R)-3-(3-(dimethylamino)-3-oxopropanamido)-2-hydroxy-3,4-dihydro-2H-benzo[e][1,2]oxaborinine-8-carboxylic acid]",Y (key: X = MIC of less than 1 μg/mL; Y = MIC of 1 μg/mL to 10 μg/mL; Z = MIC of greater than 10 μg/mL),X (key: X = MIC of less than 1 μg/mL; Y = MIC of 1 μg/mL to 10 μg/mL; Z = MIC of greater than 10 μg/mL),Y (Y = MIC of 1 μg/mL to 10 μg/mL),Y (key: X = MIC of less than 1 μg/mL; Y = MIC of 1 μg/mL to 10 μg/mL; Z = MIC of greater than 10 μg/mL),X (X = MIC of less than 1 μg/mL),Y (Y = MIC of 1 μg/mL to 10 μg/mL),X (key: X = MIC of less than 1 μg/mL; Y = MIC of 1 μg/mL to 10 μg/mL; Z = MIC of greater than 10 μg/mL),Y (Y = MIC of 1 μg/mL to 10 μg/mL),–,X (key: X = MIC of less than 1 μg/mL; Y = MIC of 1 μg/mL to 10 μg/mL; Z = MIC of greater than 10 μg/mL),> 10,X (X = MIC of less than 1 μg/mL),< 1,Z (Z Greater than 40),"TIG MPC4 TEM-10 ec302 [9, 16]: Z (Z = MIC of greater than 10 μg/mL); PAM11154/KPC-2 Biapenem MPC64 [15]: Y (Y = 10 to 40)"
"Nc1nnc(C(=O)N[C@H]2Cc3cccc(C(=O)O)c3OB2O)s1 [Compound 19, (R)-3-(5-amino-1,3,4-thiadiazole-2-carboxamido)-2-hydroxy-3,4-dihydro-2H-benzo[e][1,2]oxaborinine-8-carboxylic acid]",Y (key: X = MIC of less than 1 μg/mL; Y = MIC of 1 μg/mL to 10 μg/mL; Z = MIC of greater than 10 μg/mL),Y (key: X = MIC of less than 1 μg/mL; Y = MIC of 1 μg/mL to 10 μg/mL; Z = MIC of greater than 10 μg/mL),X (X = MIC of less than 1 μg/mL),Y (key: X = MIC of less than 1 μg/mL; Y = MIC of 1 μg/mL to 10 μg/mL; Z = MIC of greater than 10 μg/mL),Y (Y = MIC of 1 μg/mL to 10 μg/mL),Y (Y = MIC of 1 μg/mL to 10 μg/mL),–,X (X = MIC of less than 1 μg/mL),–,X (key: X = MIC of less than 1 μg/mL; Y = MIC of 1 μg/mL to 10 μg/mL; Z = MIC of greater than 10 μg/mL),> 10,Y (Y = MIC of 1 μg/mL to 10 μg/mL),< 1,–,–
"O=C(CSC(F)(F)F)N[C@H]1Cc2cccc(C(=O)O)c2OB1O [Compound 1, (R)-2-hydroxy-3-(2-(trifluoromethylthio)acetamido)-3,4-dihydro-2H-benzo[e][1,2]oxaborinine-8-carboxylic acid]",–,–,X (X = MIC of less than 1 μg/mL),–,Y (Y = MIC of 1 μg/mL to 10 μg/mL),Y (Y = MIC of 1 μg/mL to 10 μg/mL),–,X (X = MIC of less than 1 μg/mL),Z (key: X = MIC of less than 1 μg/mL; Y = MIC of 1 μg/mL to 10 μg/mL; Z = MIC of greater than 10 μg/mL),–,–,Y (Y = MIC of 1 μg/mL to 10 μg/mL),< 1,Z (Z Greater than 40),"AZT MPC4 CTX-M-14 KP1005 [1, 17]: Y (Y = MIC of 1 μg/mL to 10 μg/mL); AZT MPC4 CTX-M-15 KP1009 [2, 17]: Y (Y = MIC of 1 μg/mL to 10 μg/mL); AZT MPC4 TEM-10 ec302 [4, 17]: Y (Y = MIC of 1 μg/mL to 10 μg/mL); AZT MPC4 CMY-6 EC1010 [7, 17]: Y (Y = MIC of 1 μg/mL to 10 μg/mL); TIG MPC4 CMY-6 EC1010 [10, 16]: X (X = MIC of less than 1 μg/mL); PAM1154/KPC-2 Biapenem MPC64 [15]: X (key: X = Less than 10; Y = 10 to 40; Z Greater than 40)"
"O=C(N[C@H]1Cc2cccc(C(=O)O)c2OB1O)c1cncnc1 [Compound 18, (R)-2-hydroxy-3-(pyrimidine-5-carboxamido)-3,4-dihydro-2H-benzo[e][1,2]oxaborinine-8-carboxylic acid]",Y (key: X = MIC of less than 1 μg/mL; Y = MIC of 1 μg/mL to 10 μg/mL; Z = MIC of greater than 10 μg/mL),Y (key: X = MIC of less than 1 μg/mL; Y = MIC of 1 μg/mL to 10 μg/mL; Z = MIC of greater than 10 μg/mL),Y (Y = MIC of 1 μg/mL to 10 μg/mL),X (key: X = MIC of less than 1 μg/mL; Y = MIC of 1 μg/mL to 10 μg/mL; Z = MIC of greater than 10 μg/mL),Y (Y = MIC of 1 μg/mL to 10 μg/mL),Y (Y = MIC of 1 μg/mL to 10 μg/mL),Y (key: X = MIC of less than 1 μg/mL; Y = MIC of 1 μg/mL to 10 μg/mL; Z = MIC of greater than 10 μg/mL),Y (Y = MIC of 1 μg/mL to 10 μg/mL),Y (key: X = MIC of less than 1 μg/mL; Y = MIC of 1 μg/mL to 10 μg/mL; Z = MIC of greater than 10 μg/mL),X (key: X = MIC of less than 1 μg/mL; Y = MIC of 1 μg/mL to 10 μg/mL; Z = MIC of greater than 10 μg/mL),> 10,Y (Y = MIC of 1 μg/mL to 10 μg/mL),< 1,Z (Z Greater than 40),PAM1154/KPC-2 Biapenem MPC64 [15]: X (key: X = Less than 10; Y = 10 to 40; Z Greater than 40)
